# Laboratory results taken from US6861044B2, “Radioiodinated sulfonated phenols and process therefore” (The Dow Chemical Company, priority 1998, dated 2005).
# Where “and” joins values, the source holds several entries; their conditions need not be identical. Identical values can stand only once.
# Legend:
# albumin = albumin (Homo sapiens, UniProt P02768); conditions: concentrations up to 0.2 mM; cited from earlier work
# prealbumin = prealbumin (Homo sapiens, UniProt P02766); conditions: concentrations up to 0.2 mM; cited from earlier work
# [1] = molecular target: T1, thyroxine-binding globulin (Homo sapiens, UniProt P05543); conditions: concentrations up to 0.2 mM; cited from earlier work
# T1 sequence (P05543 21-415): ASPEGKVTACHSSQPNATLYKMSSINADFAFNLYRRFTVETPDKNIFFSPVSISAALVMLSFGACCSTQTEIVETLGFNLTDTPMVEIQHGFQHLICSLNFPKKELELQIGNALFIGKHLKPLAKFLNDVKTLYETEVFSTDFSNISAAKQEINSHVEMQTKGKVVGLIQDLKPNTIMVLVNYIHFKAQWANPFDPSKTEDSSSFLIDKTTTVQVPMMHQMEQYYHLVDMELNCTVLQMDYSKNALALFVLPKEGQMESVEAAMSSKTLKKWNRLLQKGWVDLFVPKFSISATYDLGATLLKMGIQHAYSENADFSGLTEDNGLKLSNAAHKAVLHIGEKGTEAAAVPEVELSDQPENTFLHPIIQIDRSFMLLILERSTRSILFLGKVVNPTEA
# [2] = Rat biodistribution 1 hour after tail vein injection; format: in vivo, Sprague-Dawley rats; conditions: for Activity in the thyroid / Radioactivity in / cleared from the body: rats
# Protocol: (§1) The radioiodinated HBS (^131I-HBS) solution (100 μL), prepared in Example 3, was injected […] into a tail vein of three Sprague-Dawley rats (180-220 g). After one hour, the animals were sacrificed and the tissues and organs of interest were removed and weighed. The amount of radioactivity in each organ was determined by counting the tissue sample with a sodium iodide detector coupled to a multi-channel analyzer. The counts in the tissues were compared to the average counts of three 100 μL aliquots of ^131I-HBS counted in the same manner. The percentage of dose in the bone was calculated by assuming the femur to represent 1/25 the weight of the total skeletal system. The blood dose was calculated by assuming that blood comprises 6.5% of the total body weight. Muscle dose was calculated by assuming that muscle comprises 43% of the total body weight.
# The biodistribution of the radioiodinated tyramine prepared in Example 6 was determined as in Example 4 (using 2 rats).
# [3] = Two hour rat biodistribution after intrathecal administration; format: in vivo, Sprague-Dawley rats
# Protocol: as §1
# An I-HBS solution was prepared as in Example 3. Twenty μL of this solution was injected intrathecally in two Sprague-Dawley rats (100-150 g). After two hours the rats were sacrificed and dissected. The amount of radio activity in various organs and tissues was determined as in Example 4.
# [4] = 1 hour post injection, tail vein
# [5] = average of 2 rats, determined as in Example 4 (percent of dose, 1 hour post injection, tail vein)
# [6] = individual rat, determined as in Example 4 (percent of dose, 1 hour post injection, tail vein)
# [7] = average of three rats, 1 Hour After Injection, tail vein
# [8] = individual rat, 1 Hour After Injection, tail vein
# [9] = average of two rats, two hours after intrathecal administration of 20 μL
# [10] = two hours after intrathecal administration, rats
# Sequence of albumin (P02768 25-609, species assumed): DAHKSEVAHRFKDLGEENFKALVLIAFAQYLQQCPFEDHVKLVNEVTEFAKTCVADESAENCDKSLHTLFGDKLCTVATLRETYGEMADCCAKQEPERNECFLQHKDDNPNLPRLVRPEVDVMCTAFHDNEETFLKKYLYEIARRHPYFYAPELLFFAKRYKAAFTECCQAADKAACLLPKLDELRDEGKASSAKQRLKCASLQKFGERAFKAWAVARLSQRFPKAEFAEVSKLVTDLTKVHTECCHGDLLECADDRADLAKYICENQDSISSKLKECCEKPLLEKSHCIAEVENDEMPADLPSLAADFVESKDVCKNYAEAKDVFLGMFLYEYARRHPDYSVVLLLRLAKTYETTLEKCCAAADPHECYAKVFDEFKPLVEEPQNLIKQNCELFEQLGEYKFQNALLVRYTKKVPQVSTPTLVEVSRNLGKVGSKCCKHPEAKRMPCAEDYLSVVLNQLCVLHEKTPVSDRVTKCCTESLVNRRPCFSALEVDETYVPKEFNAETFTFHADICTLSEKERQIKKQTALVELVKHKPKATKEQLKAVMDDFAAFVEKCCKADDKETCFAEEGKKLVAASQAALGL
smiles,measurement,setting,value
"O=S(=O)(O)c1cc(I)c(O)c(I)c1 [diiodophenolsulphonic acid, 3,5-diiodo-4-hydroxybenzenesulphonic acid]",Displacement of triiodothyronine from albumin,albumin,did not displace
same,Displacement of thyroxine from prealbumin-binding sites,prealbumin,did selectively display thyroxine
same,Displacement of triiodothyronine from thyroxine-binding globulin,[1],did not displace
NCCc1ccc(O)c([131I])c1 [radioiodinated tyramine],Activity in the thyroid,[2]; [4],very little
same,Radioactivity in / cleared from the body,[2]; [4],most radioactivity had cleared the body
same,"Biodistribution, Blood, Average",[2]; [5],1.13
same,"Biodistribution, Bone, Average",[2]; [5],0.25
same,"Biodistribution, Heart, Average",[2]; [5],0.03
same,"Biodistribution, Kidney, Average",[2]; [5],0.26
same,"Biodistribution, Lg. Int., Average",[2]; [5],1.24
same,"Biodistribution, Liver, Average",[2]; [5],0.52
same,"Biodistribution, Lung, Average",[2]; [5],0.15
same,"Biodistribution, Muscle, Average",[2]; [5],1.09
same,"Biodistribution, Sm. Int., Average",[2]; [5],4.07
same,"Biodistribution, Spleen, Average",[2]; [5],0.01
same,"Biodistribution, Stomach, Average",[2]; [5],0.43
same,"Biodistribution, Tail, Average",[2]; [5],0.49
same,"Biodistribution, Thyroid, Average",[2]; [5],0.09
same,"Biodistribution, Blood",[2]; [6],1.19 and 1.06
same,"Biodistribution, Bone",[2]; [6],0.30 and 0.20
same,"Biodistribution, Heart",[2]; [6],0.03 and 0.02
same,"Biodistribution, Kidney",[2]; [6],0.26 and 0.25
same,"Biodistribution, Lg. Int.",[2]; [6],0.46 and 2.02
same,"Biodistribution, Liver",[2]; [6],0.46 and 0.57
same,"Biodistribution, Lung",[2]; [6],0.03 and 0.26
same,"Biodistribution, Muscle",[2]; [6],1.31 and 0.87
same,"Biodistribution, Sm. Int.",[2]; [6],3.47 and 4.67
same,"Biodistribution, Spleen",[2]; [6],0.01
same,"Biodistribution, Stomach",[2]; [6],0.37 and 0.48
same,"Biodistribution, Tail",[2]; [6],0.77 and 0.20
same,"Biodistribution, Thyroid",[2]; [6],0.12 and 0.07
O=S(=O)([O-])c1ccc(O)c([131I])c1.[Na+] [^131I-HBS],Activity in the urine,"[2]; 1 hour post injection, all animals",Almost all the activity
same,Activity in the thyroid,[2]; [4],lack of activity
same,Radioactivity in / cleared from the body,[2]; [4],very little activity
same,"Percent Injected Dose, Heart, Average",[2]; [7],0.01 Percent Injected Dose
same,"Percent Injected Dose, Kidney, Average",[2]; [7],0.12 Percent Injected Dose
same,"Percent Injected Dose, Lg. Int., Average",[2]; [7],0.08 Percent Injected Dose
same,"Percent Injected Dose, Liver, Average",[2]; [7],0.06 Percent Injected Dose
same,"Percent Injected Dose, Lung, Average",[2]; [7],0.02 Percent Injected Dose
same,"Percent Injected Dose, Sm Int., Average",[2]; [7],1.10 Percent Injected Dose
same,"Percent Injected Dose, Spleen, Average",[2]; [7],0.00 Percent Injected Dose
same,"Percent Injected Dose, Stomach, Average",[2]; [7],0.29 Percent Injected Dose
same,"Percent Injected Dose, Tail, Average",[2]; [7],0.08 Percent Injected Dose
same,"Percent Injected Dose, Thyroid, Average",[2]; [7],0.00 Percent Injected Dose
same,"Percent Injected Dose, Blood, Average","[2]; average of three rats, 1 Hour After Injection, tail vein, blood taken as 6.5% of body weight",0.16 Percent Injected Dose
same,"Percent Injected Dose, Bone, Average","[2]; average of three rats, 1 Hour After Injection, tail vein, femur taken as 1/25 of skeleton",1.00 Percent Injected Dose
same,"Percent Injected Dose, Muscle, Average","[2]; average of three rats, 1 Hour After Injection, tail vein, muscle taken as 43% of body weight",0.40 Percent Injected Dose
same,"Percent Injected Dose, Heart",[2]; [8],0.01 Percent Injected Dose (2×) and 0.02 Percent Injected Dose
same,"Percent Injected Dose, Kidney",[2]; [8],0.19 Percent Injected Dose and 0.10 Percent Injected Dose and 0.08 Percent Injected Dose
same,"Percent Injected Dose, Lg. Int.",[2]; [8],0.08 Percent Injected Dose and 0.12 Percent Injected Dose and 0.05 Percent Injected Dose
same,"Percent Injected Dose, Liver",[2]; [8],0.05 Percent Injected Dose and 0.08 Percent Injected Dose and 0.06 Percent Injected Dose
same,"Percent Injected Dose, Lung",[2]; [8],0.01 Percent Injected Dose and 0.03 Percent Injected Dose and 0.02 Percent Injected Dose
same,"Percent Injected Dose, Sm Int.",[2]; [8],1.51 Percent Injected Dose and 0.67 Percent Injected Dose and 1.24 Percent Injected Dose
same,"Percent Injected Dose, Spleen",[2]; [8],0.01 Percent Injected Dose (2×) and 0.00 Percent Injected Dose
same,"Percent Injected Dose, Stomach",[2]; [8],0.33 Percent Injected Dose and 0.31 Percent Injected Dose and 0.24 Percent Injected Dose
same,"Percent Injected Dose, Tail",[2]; [8],0.01 Percent Injected Dose and 0.16 Percent Injected Dose and 0.09 Percent Injected Dose
same,"Percent Injected Dose, Thyroid",[2]; [8],0.00 Percent Injected Dose
same,"Percent Injected Dose, Blood","[2]; individual rat, 1 Hour After Injection, tail vein, blood taken as 6.5% of body weight",0.14 Percent Injected Dose and 0.18 Percent Injected Dose and 0.15 Percent Injected Dose
same,"Percent Injected Dose, Bone","[2]; individual rat, 1 Hour After Injection, tail vein, femur taken as 1/25 of skeleton",0.37 Percent Injected Dose and 0.16 Percent Injected Dose
same,"Percent Injected Dose, Muscle","[2]; individual rat, 1 Hour After Injection, tail vein, muscle taken as 43% of body weight",0.88 Percent Injected Dose and 0.38 Percent Injected Dose and 0.05 Percent Injected Dose
same,"% Injected Dose, Bladder",[3]; [9],0.3 % Injected Dose
same,"% Injected Dose, Blood",[3]; [9],0.7 % Injected Dose
same,"% Injected Dose, Bone",[3]; [9],1.3 % Injected Dose
same,"% Injected Dose, Brain",[3]; [9],1.6 % Injected Dose
same,"% Injected Dose, Caecum",[3]; [9],0.0 % Injected Dose
same,"% Injected Dose, Colon",[3]; [9],0.9 % Injected Dose
same,"% Injected Dose, Heart",[3]; [9],0.0 % Injected Dose
same,"% Injected Dose, Kidney",[3]; [9],0.3 % Injected Dose
same,"% Injected Dose, Liver",[3]; [9],0.2 % Injected Dose
same,"% Injected Dose, Lung",[3]; [9],0.0 % Injected Dose
same,"% Injected Dose, Muscle",[3]; [9],0.5 % Injected Dose
same,"% Injected Dose, Sm. Intestine",[3]; [9],0.5 % Injected Dose
same,"% Injected Dose, Spleen",[3]; [9],0.0 % Injected Dose
same,"% Injected Dose, Stomach",[3]; [9],0.3 % Injected Dose
same,"% Injected Dose, Thyroid",[3]; [9],0.0 % Injected Dose
same,"% Injected Dose, Urine","[3]; average of two rats, two hours after intrathecal administration of 20 μL, recovery of urine may have been less than quantitative",88 % Injected Dose
same,Clearance of radioactivity through the kidney,[3]; [10],had cleared the kidney
same,Radioactivity present in the thyroid,[3]; [10],little or no radioactivity
